Measurements taken from ChEMBL document CHEMBL4507258 (2021).

Legend:
[1] = molecular target: Calcium/calmodulin-dependent protein kinase type 1D (Homo sapiens) (UniProt Q8IU85); conditions: Compound concentration 1000.0 nM
[2] = molecular target: Tyrosine-protein kinase TXK (Homo sapiens) (UniProt P42681); conditions: Compound concentration 1000.0 nM
[3] = molecular target: Dual specificity protein kinase TTK (Homo sapiens) (UniProt P33981); conditions: Compound concentration 1000.0 nM
[4] = molecular target: Eukaryotic translation initiation factor 2-alpha kinase 1 (Homo sapiens) (UniProt Q9BQI3); conditions: Compound concentration 1000.0 nM
[5] = molecular target: Serine/threonine-protein kinase RIO2 (Homo sapiens) (UniProt Q9BVS4); conditions: Compound concentration 1000.0 nM
Serine/threonine-protein kinase RIO2 (Homo sapiens), sequence (Q9BVS4 whole entry, looked up): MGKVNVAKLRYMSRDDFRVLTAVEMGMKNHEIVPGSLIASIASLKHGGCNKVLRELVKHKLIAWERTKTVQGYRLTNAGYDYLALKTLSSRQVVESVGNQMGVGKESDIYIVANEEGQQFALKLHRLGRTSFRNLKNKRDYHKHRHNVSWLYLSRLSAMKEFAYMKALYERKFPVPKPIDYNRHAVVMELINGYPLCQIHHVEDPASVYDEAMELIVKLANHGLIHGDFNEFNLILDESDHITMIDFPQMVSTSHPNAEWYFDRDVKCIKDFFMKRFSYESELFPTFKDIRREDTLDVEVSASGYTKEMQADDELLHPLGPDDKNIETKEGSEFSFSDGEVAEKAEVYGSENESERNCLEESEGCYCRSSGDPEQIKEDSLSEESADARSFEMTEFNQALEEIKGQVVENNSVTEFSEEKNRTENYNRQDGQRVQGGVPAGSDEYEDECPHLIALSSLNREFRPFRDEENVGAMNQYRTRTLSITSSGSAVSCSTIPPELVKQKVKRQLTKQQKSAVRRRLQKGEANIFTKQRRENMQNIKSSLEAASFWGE

[6] = test system: Tyrosine-protein kinase ABL1 (Homo sapiens), P00519 [T315I]; conditions: Compound concentration 1000.0 nM
[7] = molecular target: Tyrosine-protein kinase BTK (Homo sapiens) (UniProt Q06187); conditions: Compound concentration 1000.0 nM
[8] = molecular target: Dual specificity mitogen-activated protein kinase kinase 4 (Homo sapiens) (UniProt P45985); conditions: Compound concentration 1000.0 nM
[9] = molecular target: LIM domain kinase 2 (Homo sapiens) (UniProt P53671); conditions: Compound concentration 1000.0 nM
[10] = molecular target: Histamine H1 receptor (Homo sapiens, UniProt P35367); conditions: Compound concentration 10.0 uM
[11] = molecular target: Epithelial discoidin domain-containing receptor 1 (Homo sapiens) (UniProt Q08345); conditions: Compound concentration 1000.0 nM
Epithelial discoidin domain-containing receptor 1 (Homo sapiens), sequence (Q08345 whole entry, the tested form may be a part): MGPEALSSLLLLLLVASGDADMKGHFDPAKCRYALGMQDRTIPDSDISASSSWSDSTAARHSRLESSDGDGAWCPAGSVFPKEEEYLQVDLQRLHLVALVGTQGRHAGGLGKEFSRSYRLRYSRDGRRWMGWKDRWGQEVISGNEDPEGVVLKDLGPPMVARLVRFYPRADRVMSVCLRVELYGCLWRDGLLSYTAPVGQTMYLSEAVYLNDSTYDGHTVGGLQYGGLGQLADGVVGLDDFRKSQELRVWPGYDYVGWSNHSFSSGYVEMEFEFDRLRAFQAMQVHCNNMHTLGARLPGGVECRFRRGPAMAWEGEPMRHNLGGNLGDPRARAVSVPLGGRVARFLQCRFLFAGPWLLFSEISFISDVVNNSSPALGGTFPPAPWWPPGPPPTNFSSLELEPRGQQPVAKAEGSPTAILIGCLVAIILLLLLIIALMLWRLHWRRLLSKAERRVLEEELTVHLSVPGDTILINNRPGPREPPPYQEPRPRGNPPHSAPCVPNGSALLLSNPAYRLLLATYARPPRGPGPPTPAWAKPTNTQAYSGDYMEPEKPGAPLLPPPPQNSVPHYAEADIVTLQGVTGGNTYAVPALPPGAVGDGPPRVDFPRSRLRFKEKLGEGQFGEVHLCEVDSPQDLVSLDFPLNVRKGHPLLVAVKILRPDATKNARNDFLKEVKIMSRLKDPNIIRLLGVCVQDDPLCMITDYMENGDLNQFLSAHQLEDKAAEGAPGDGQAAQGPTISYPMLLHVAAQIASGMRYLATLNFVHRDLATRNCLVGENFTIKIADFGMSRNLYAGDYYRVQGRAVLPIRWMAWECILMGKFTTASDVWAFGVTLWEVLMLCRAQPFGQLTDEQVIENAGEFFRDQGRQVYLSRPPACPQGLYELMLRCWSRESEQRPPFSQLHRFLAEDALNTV

[12] = molecular target: Tyrosine-protein kinase SYK (Homo sapiens) (UniProt P43405); conditions: Compound concentration 1000.0 nM
[13] = test system: Epidermal growth factor receptor (Homo sapiens), P00533 [G719S]; conditions: Compound concentration 1000.0 nM
[14] = molecular target: Serine/threonine-protein kinase SIK2 (Homo sapiens) (UniProt Q9H0K1); conditions: Compound concentration 1000.0 nM
[15] = molecular target: Protein kinase C eta type (Homo sapiens) (UniProt P24723); conditions: Compound concentration 1000.0 nM
[16] = molecular target: Sigma non-opioid intracellular receptor 1 (Homo sapiens, UniProt Q99720); conditions: Compound concentration 10.0 uM
[17] = test system: Mast/stem cell growth factor receptor Kit (Homo sapiens), P10721 [D816H]; conditions: Compound concentration 1000.0 nM
[18] = molecular target: Serine/threonine-protein kinase 33 (Homo sapiens) (UniProt Q9BYT3); conditions: Compound concentration 1000.0 nM
[19] = test system: Receptor-type tyrosine-protein kinase FLT3 (Homo sapiens), P36888 [UNDEFINED MUTATION]; conditions: Compound concentration 1000.0 nM
[20] = molecular target: Calcium/calmodulin-dependent protein kinase type II subunit delta (Homo sapiens) (UniProt Q13557); conditions: Compound concentration 1000.0 nM
[21] = molecular target: Aurora kinase C (Homo sapiens) (UniProt Q9UQB9); conditions: Compound concentration 1000.0 nM
[22] = molecular target: Serine/threonine-protein kinase VRK2 (Homo sapiens) (UniProt Q86Y07); conditions: Compound concentration 1000.0 nM
[23] = molecular target: Death-associated protein kinase 2 (Homo sapiens) (UniProt Q9UIK4); conditions: Compound concentration 1000.0 nM
[24] = molecular target: Serine/threonine-protein kinase Nek3 (Homo sapiens) (UniProt P51956); conditions: Compound concentration 1000.0 nM
[25] = test system: Tyrosine-protein kinase ABL1 (Homo sapiens), P00519 [T315I]; conditions: Compound concentration 1000.0 nM; remark: listed apart in the source
[26] = test system: Phosphatidylinositol 4,5-bisphosphate 3-kinase catalytic subunit alpha isoform (Homo sapiens), P42336 [E545K]; conditions: Compound concentration 1000.0 nM
[27] = molecular target: Tyrosine-protein kinase Blk (Homo sapiens) (UniProt P51451); conditions: Compound concentration 1000.0 nM
[28] = molecular target: Homeodomain-interacting protein kinase 3 (Homo sapiens) (UniProt Q9H422); conditions: Compound concentration 1000.0 nM
[29] = molecular target: Serine/threonine-protein kinase N1 (Homo sapiens) (UniProt Q16512); conditions: Compound concentration 1000.0 nM
Serine/threonine-protein kinase N1 (Homo sapiens), sequence (Q16512 2-942 limits assumed): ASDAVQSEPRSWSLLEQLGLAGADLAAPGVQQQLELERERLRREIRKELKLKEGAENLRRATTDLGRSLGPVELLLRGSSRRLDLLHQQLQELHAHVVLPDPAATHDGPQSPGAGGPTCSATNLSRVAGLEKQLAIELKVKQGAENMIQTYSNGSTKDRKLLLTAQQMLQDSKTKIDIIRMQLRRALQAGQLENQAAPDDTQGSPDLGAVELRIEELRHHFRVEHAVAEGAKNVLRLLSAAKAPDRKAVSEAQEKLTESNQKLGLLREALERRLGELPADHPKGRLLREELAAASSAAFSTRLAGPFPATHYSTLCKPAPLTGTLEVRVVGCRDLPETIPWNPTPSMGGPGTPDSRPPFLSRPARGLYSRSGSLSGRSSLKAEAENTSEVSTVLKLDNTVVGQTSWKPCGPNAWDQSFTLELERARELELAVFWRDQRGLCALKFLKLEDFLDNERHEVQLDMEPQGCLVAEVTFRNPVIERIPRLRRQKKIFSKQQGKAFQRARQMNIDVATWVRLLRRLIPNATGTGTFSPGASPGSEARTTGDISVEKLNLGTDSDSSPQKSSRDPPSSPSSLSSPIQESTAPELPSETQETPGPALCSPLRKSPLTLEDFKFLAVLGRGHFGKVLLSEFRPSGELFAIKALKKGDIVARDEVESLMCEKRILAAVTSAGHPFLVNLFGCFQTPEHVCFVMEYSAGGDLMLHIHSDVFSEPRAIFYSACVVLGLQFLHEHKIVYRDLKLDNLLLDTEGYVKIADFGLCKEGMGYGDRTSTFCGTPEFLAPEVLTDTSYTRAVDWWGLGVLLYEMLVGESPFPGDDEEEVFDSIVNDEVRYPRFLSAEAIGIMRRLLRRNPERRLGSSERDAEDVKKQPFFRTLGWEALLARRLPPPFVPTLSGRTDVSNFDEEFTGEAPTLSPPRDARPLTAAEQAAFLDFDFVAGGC

[30] = molecular target: Serine/threonine-protein kinase PAK 3 (Homo sapiens) (UniProt O75914); conditions: Compound concentration 1000.0 nM
[31] = molecular target: Receptor-interacting serine/threonine-protein kinase 2 (Homo sapiens) (UniProt O43353); conditions: Compound concentration 1000.0 nM
[32] = molecular target: Mitogen-activated protein kinase kinase kinase kinase 3 (Homo sapiens) (UniProt Q8IVH8); conditions: Compound concentration 1000.0 nM
Mitogen-activated protein kinase kinase kinase kinase 3 (Homo sapiens), sequence (Q8IVH8 whole entry): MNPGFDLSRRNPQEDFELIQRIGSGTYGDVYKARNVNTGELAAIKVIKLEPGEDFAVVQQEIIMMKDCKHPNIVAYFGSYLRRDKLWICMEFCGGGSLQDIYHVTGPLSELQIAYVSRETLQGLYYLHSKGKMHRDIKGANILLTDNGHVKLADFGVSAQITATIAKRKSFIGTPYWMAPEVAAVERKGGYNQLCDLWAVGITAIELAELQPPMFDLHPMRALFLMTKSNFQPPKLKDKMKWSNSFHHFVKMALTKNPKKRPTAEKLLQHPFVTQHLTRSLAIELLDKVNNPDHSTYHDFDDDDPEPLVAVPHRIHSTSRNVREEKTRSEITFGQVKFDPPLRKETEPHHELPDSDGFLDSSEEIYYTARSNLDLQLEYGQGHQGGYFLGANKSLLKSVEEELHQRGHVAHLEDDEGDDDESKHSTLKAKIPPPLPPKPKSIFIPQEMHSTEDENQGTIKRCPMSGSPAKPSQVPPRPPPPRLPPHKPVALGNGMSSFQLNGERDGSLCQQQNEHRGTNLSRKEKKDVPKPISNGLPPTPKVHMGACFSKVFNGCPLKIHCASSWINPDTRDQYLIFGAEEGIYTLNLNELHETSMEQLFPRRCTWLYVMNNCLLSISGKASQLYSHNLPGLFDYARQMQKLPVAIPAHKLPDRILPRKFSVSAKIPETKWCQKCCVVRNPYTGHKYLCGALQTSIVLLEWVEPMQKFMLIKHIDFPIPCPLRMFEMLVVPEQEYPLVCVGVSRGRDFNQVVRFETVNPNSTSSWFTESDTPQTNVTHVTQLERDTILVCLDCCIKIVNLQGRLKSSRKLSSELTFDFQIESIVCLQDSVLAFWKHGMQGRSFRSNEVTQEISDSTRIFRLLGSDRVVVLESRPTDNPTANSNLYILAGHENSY

[33] = molecular target: Serine/threonine-protein kinase D1 (Homo sapiens) (UniProt Q15139); conditions: Compound concentration 1000.0 nM
[34] = molecular target: Ephrin type-B receptor 1 (Homo sapiens) (UniProt P54762); conditions: Compound concentration 1000.0 nM
[35] = molecular target: Mitogen-activated protein kinase 7 (Homo sapiens) (UniProt Q13164); conditions: Compound concentration 1000.0 nM
Mitogen-activated protein kinase 7 (Homo sapiens), sequence (Q13164 2-816 limits assumed): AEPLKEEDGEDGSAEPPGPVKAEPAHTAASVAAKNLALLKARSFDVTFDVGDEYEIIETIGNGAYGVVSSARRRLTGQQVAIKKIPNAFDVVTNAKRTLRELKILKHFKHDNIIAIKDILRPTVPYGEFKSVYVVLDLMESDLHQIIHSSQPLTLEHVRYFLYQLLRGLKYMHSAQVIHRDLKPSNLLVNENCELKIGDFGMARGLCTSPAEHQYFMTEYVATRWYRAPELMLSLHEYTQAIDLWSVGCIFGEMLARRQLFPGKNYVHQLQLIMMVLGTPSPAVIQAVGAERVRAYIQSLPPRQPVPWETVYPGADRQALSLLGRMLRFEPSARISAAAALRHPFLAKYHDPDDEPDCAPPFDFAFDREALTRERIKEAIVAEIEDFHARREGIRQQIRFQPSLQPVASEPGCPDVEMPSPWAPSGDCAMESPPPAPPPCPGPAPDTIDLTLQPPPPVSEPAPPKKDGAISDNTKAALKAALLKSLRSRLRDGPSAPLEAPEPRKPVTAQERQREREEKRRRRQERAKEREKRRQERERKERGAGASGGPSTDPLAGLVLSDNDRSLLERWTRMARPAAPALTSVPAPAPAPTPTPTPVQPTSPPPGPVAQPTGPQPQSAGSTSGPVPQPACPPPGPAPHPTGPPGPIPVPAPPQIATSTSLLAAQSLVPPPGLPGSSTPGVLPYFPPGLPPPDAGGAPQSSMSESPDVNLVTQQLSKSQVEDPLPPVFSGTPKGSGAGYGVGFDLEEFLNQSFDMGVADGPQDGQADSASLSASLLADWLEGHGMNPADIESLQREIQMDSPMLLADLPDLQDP

[36] = molecular target: Bone morphogenetic protein receptor type-1B (Homo sapiens) (UniProt O00238); conditions: Compound concentration 1000.0 nM
[37] = molecular target: Serine/threonine-protein kinase RIO3 (Homo sapiens) (UniProt O14730); conditions: Compound concentration 1000.0 nM
[38] = molecular target: Cytoplasmic tyrosine-protein kinase BMX (Homo sapiens) (UniProt P51813); conditions: Compound concentration 1000.0 nM
[39] = molecular target: TGF-beta receptor type-2 (Homo sapiens) (UniProt P37173); conditions: Compound concentration 1000.0 nM
[40] = molecular target: Mitogen-activated protein kinase kinase kinase kinase 4 (Homo sapiens) (UniProt O95819); conditions: Compound concentration 1000.0 nM
[41] = test system: Epidermal growth factor receptor (Homo sapiens), P00533 [L861Q]; conditions: Compound concentration 1000.0 nM
[42] = molecular target: Muscle, skeletal receptor tyrosine-protein kinase (Homo sapiens) (UniProt O15146); conditions: Compound concentration 1000.0 nM
[43] = molecular target: Proto-oncogene tyrosine-protein kinase Src (Homo sapiens) (UniProt P12931); conditions: Compound concentration 1000.0 nM
[44] = test system: Epidermal growth factor receptor (Homo sapiens), P00533 [L858R,T790M]; conditions: Compound concentration 1000.0 nM
[45] = molecular target: 5-hydroxytryptamine receptor 2B (Homo sapiens, UniProt P41595); conditions: Compound concentration 10.0 uM

Dual specificity protein kinase TTK (Homo sapiens), sequence (P33981 whole entry): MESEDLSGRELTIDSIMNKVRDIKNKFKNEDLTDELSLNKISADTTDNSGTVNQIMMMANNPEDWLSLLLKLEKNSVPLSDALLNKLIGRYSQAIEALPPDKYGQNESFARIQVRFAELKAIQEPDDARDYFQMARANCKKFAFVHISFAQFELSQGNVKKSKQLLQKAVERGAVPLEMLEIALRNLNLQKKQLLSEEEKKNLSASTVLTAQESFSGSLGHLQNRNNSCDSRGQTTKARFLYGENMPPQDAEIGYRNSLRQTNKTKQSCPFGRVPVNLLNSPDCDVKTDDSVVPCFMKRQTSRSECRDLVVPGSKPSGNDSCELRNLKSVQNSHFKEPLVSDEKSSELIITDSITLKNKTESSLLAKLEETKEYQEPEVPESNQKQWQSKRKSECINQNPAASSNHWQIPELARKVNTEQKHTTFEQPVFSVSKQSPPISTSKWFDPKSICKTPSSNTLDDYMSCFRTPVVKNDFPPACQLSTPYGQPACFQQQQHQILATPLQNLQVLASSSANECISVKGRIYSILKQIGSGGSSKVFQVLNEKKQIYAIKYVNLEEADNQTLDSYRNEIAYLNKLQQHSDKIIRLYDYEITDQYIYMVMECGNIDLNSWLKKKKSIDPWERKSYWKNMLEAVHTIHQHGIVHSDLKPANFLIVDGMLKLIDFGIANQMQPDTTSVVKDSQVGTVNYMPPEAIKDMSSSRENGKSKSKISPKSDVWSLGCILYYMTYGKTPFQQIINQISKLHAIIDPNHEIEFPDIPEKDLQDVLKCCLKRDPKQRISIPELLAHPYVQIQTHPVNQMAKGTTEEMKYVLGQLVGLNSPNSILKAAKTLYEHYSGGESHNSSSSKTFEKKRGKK

Work on `CCCCN(CCCC)C(=O)CN1C[C@@H](c2cc(OC)c3c(c2)OCO3)[C@H](C(=O)O)[C@H]1CC(C)(C)CCC` [A-545] yielded a residual activity [1] of 94.4%, a residual activity [2] of 100% and a residual activity [3] of 100%. It also gave a residual activity [4] of 100%, a residual activity [5] of 83.2% and a residual activity [6] of 89.2%. It also gave a residual activity [7] of 100%, a residual activity [8] of 93.3% and a residual activity [9] of 86.8%. For the same compound, the inhibition [10] was 47.4%, the residual activity [11] was 100% and the residual activity [12] was 100%. The residual activity [13] was 100%, the residual activity [14] was 100% and the residual activity [15] was 0%. For the same compound, the inhibition [16] was 93.6%, the residual activity [17] was 78.5% and the residual activity [18] was 100%. It also gave a residual activity [19] of 100%, a residual activity [20] of 99.9% and a residual activity [21] of 100%. The residual activity [22] was 95.4%, the residual activity [23] was 99.6% and the residual activity [24] was 72.9%. It also gave a residual activity [25] of 100%, a residual activity [26] of 91% and a residual activity [27] of 100%. For the same compound, the residual activity [28] was 100%, the residual activity [29] was 85% and the residual activity [30] was 89.4%. It also gave a residual activity [31] of 100%, a residual activity [32] of 94.1% and a residual activity [33] of 100%. For the same compound, the residual activity [34] was 100%, the residual activity [35] was 100% and the residual activity [36] was 100%. For the same compound, the residual activity [37] was 100%, the residual activity [38] was 84.6% and the residual activity [39] was 98.6%. The residual activity [40] was 88.9%, the residual activity [41] was 100% and the residual activity [42] was 78.7%. For the same compound, the residual activity [43] was 75.2%, the residual activity [44] was 100% and the inhibition [45] was 76%.
`CCCCN(CCCC)C(=O)CN1C[C@H](c2cc(OC)c3c(c2)OCO3)[C@@H](C(=O)O)[C@@H]1CC(C)(C)CCC` [ABT-546] was tested, and the residual activity [1] was 100%, the residual activity [2] was 94.3% and the residual activity [3] was 100%. The residual activity [4] was 100%, the residual activity [5] was 65.3% and the residual activity [6] was 80.7%. It also gave a residual activity [7] of 61.3%, a residual activity [8] of 74.4% and a residual activity [9] of 100%. The inhibition [10] was 53.6%, the residual activity [11] was 95.5% and the residual activity [12] was 100%. It also gave a residual activity [13] of 100%, a residual activity [14] of 100% and a residual activity [15] of 100%. For the same compound, the inhibition [16] was 29.6%, the residual activity [17] was 67.3% and the residual activity [18] was 100%. For the same compound, the residual activity [19] was 100%, the residual activity [20] was 100% and the residual activity [21] was 100%. The residual activity [22] was 72.8%, the residual activity [23] was 100% and the residual activity [24] was 99.1%. For the same compound, the residual activity [25] was 100%, the residual activity [26] was 70% and the residual activity [27] was 95.8%. For the same compound, the residual activity [28] was 100%, the residual activity [29] was 100% and the residual activity [30] was 100%. It also gave a residual activity [31] of 100%, a residual activity [32] of 100% and a residual activity [33] of 79.4%. It also gave a residual activity [34] of 100%, a residual activity [35] of 100% and a residual activity [36] of 59%. It also gave a residual activity [37] of 74.9%, a residual activity [38] of 100% and a residual activity [39] of 100%. The residual activity [40] was 100%, the residual activity [41] was 76.4% and the residual activity [42] was 100%. The residual activity [43] was 100%, the residual activity [44] was 60.6% and the inhibition [45] was -9.89%.
